Experiments:
Assay type in all cases: biochemical
PDGFRα tyrosine kinase = target: T1, PDGFRα tyrosine kinase (Homo sapiens, UniProt P16234); test: In vitro enzyme assay (ELISA), Test (a), PDGFRα; settings: ATP 14 μM, read-out: IC50 versus PDGFRα tyrosine kinase
T1 construct: PDGFRα, PDGFRβ and KDR receptor cytoplasmic domains, obtained by expression of recombinant protein in insect cells; purchased Upstate Biotechnology Inc. 14-467; host or cells: Sf9 insect cells
Experimental: (§1) The ability of test compounds to inhibit the phosphorylation of a tyrosine containing polypeptide substrate by the tyrosine kinase enzymes PDGFRα, PDGFRβ and KDR was assessed using conventional ELISA assays. DNA encoding the PDGFRα, PDGFRβ or KDR receptor cytoplasmic domains may be obtained by total gene synthesis (International Biotechnology Lab., 1987, 5(3), 19-25) or by cloning. The DNA fragments may be expressed in a suitable expression system to obtain polypeptide with tyrosine kinase activity. For example, PDGFRα, PDGFRβ and KDR receptor cytoplasmic domains, obtained by expression of recombinant protein in insect cells, can be shown to display intrinsic tyrosine kinase activity. In the case of the VEGF receptor KDR (Genbank Accession No. L04947), a DNA fragment encoding most of the cytoplasmic domain, commencing with methionine 806 and including the termination codon may be cloned into a baculovirus transplacement vector [for example pAcYM1 (see The Baculovirus Expression System: A Laboratory Guide, L. A. King and R. D. Possee, Chapman and Hall, 1992) or pAc360 or pBlueBacHis (available from Invitrogen Corporation)]. This recombinant construct may be co-transfected into insect cells [for example Spodoptera frugiperda 21(Sf21) or Spodoptera frugiperda 9(Sf9)] with viral DNA (for example Pharmingen BaculoGold) to prepare recombinant baculovirus. […]

PDGFRβ tyrosine kinase = target: T2, PDGFRβ tyrosine kinase (Homo sapiens, UniProt P09619); test: In vitro enzyme assay (ELISA), Test (a), PDGFRβ; settings: ATP 2.8 μM, read-out: IC50 versus PDGFRβ tyrosine kinase
T2 construct: PDGFRα, PDGFRβ and KDR receptor cytoplasmic domains, obtained by expression of recombinant protein in insect cells; purchased Upstate Biotechnology Inc. 14-463; host or cells: Sf9 insect cells
Experimental: as §1

KDR tyrosine kinase = target: T3, KDR tyrosine kinase (Homo sapiens, UniProt P35968); test: In vitro enzyme assay (ELISA), Test (a), KDR; settings: ATP 8 μM, read-out: IC50 versus KDR tyrosine kinase
T3 construct: a DNA fragment encoding most of the cytoplasmic domain, commencing with methionine 806 and including the termination codon; made in house; host or cells: Sf9 insect cells (recombinant baculovirus)
Experimental: The ability of test compounds to inhibit the phosphorylation of a tyrosine containing polypeptide substrate by the tyrosine kinase enzymes PDGFRα, PDGFRβ and KDR was assessed using conventional ELISA assays. DNA encoding the PDGFRα, PDGFRβ or KDR receptor cytoplasmic domains may be obtained by total gene synthesis (International Biotechnology Lab., 1987, 5(3), 19-25) or by cloning. The DNA fragments may be expressed in a suitable expression system to obtain polypeptide with tyrosine kinase activity. For example, PDGFRα, PDGFRβ and KDR receptor cytoplasmic domains, obtained by expression of recombinant protein in insect cells, can be shown to display intrinsic tyrosine kinase activity. In the case of the VEGF receptor KDR (Genbank Accession No. L04947), a DNA fragment encoding most of the cytoplasmic domain, commencing with methionine 806 and including the termination codon may be cloned into a baculovirus transplacement vector [for example pAcYM1 (see The Baculovirus Expression System: A Laboratory Guide, L. A. King and R. D. Possee, Chapman and Hall, 1992) or pAc360 or pBlueBacHis (available from Invitrogen Corporation)]. This recombinant construct may be co-transfected into insect cells [for example Spodoptera frugiperda 21(Sf21) or Spodoptera frugiperda 9(Sf9)] with viral DNA (for example Pharmingen BaculoGold) to prepare recombinant baculovirus. Details of the methods for the assembly of recombinant DNA molecules and the preparation and use of recombinant baculovirus can be found in standard texts, for example Sambrook et al., 1989, Molecular cloning—A Laboratory Manual, 2nd edition, Cold Spring Harbour Laboratory Press and O'Reilly et al., 1992, Baculovirus Expression Vectors—A Laboratory Manual, W. H. Freeman and Co, New York).
For expression, Sf9 cells were infected with plaque-pure KDR recombinant virus and harvested 48 hours later. […]

T3 sequence (P35968 786-1356 limits assumed): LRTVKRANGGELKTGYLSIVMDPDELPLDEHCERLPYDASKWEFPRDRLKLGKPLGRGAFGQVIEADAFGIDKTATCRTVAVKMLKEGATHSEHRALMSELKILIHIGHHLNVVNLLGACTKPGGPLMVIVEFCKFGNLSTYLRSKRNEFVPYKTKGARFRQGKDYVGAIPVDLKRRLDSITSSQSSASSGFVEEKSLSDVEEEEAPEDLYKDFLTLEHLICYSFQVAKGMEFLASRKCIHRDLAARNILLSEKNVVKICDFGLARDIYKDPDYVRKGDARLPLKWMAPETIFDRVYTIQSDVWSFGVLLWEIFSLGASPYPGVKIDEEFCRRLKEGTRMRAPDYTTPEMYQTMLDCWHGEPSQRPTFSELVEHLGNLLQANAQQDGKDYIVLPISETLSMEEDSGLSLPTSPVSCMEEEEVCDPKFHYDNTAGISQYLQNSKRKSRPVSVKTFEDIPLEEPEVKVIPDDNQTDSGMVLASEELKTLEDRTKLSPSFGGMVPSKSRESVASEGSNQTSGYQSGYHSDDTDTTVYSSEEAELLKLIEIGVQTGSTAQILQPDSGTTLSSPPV
T1 sequence (P16234 550-1089 limits assumed): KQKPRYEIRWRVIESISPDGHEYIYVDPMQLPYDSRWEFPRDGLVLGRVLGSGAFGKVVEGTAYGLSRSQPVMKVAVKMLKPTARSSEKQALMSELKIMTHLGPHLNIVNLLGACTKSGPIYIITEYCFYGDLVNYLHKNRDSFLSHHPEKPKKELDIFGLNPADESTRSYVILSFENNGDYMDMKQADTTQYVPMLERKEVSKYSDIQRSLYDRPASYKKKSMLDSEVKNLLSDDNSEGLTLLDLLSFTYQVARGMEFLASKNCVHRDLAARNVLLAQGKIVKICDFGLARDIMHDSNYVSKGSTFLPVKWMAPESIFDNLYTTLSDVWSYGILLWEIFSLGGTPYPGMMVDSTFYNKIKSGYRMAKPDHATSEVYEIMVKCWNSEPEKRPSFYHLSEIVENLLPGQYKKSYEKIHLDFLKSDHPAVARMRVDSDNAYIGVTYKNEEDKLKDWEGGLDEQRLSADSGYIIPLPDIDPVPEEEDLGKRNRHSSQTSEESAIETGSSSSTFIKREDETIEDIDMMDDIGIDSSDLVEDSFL
T2 sequence (P09619 554-1106 limits assumed): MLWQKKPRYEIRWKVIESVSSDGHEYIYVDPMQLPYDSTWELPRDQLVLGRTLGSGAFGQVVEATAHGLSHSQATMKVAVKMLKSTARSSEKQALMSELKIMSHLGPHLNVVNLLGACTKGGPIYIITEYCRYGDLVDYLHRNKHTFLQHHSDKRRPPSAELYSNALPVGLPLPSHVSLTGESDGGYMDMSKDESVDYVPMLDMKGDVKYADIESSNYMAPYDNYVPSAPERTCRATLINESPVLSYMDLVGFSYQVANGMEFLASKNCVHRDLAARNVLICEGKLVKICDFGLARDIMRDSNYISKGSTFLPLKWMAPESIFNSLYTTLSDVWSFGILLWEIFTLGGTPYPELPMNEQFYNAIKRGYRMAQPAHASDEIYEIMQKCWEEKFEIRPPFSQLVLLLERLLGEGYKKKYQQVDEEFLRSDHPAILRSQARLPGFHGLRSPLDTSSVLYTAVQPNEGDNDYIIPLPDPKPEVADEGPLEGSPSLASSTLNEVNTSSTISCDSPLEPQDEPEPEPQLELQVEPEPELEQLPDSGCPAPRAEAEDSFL

IC50 (PDGFRα tyrosine kinase): ~100 nM
IC50 (PDGFRβ tyrosine kinase): ~10 nM
IC50 (KDR tyrosine kinase): ~1 nM
Compound: COc1cc2ncnc(Oc3cnn(CC(=O)Nc4cccc5c4OCO5)c3)c2cc1OC [Example 2, N-(2,3-methylenedioxyphenyl)-2-[4-(6,7-dimethoxyquinazolin-4-yloxy)pyrazol-1-yl]acetamide]

Reference: patent US20090036474A1, “Quinazoline derivatives for use against cancer” (priority 2004, published 2009)
